Test results published in the kinase profiling compilation of Christmann-Franck et al. (2016).
pKi: −log10 of the molar value.

target: SGK1 (human) (UniProt O00141); experiment: Flashplate
Sequence (O00141 whole entry, looked up): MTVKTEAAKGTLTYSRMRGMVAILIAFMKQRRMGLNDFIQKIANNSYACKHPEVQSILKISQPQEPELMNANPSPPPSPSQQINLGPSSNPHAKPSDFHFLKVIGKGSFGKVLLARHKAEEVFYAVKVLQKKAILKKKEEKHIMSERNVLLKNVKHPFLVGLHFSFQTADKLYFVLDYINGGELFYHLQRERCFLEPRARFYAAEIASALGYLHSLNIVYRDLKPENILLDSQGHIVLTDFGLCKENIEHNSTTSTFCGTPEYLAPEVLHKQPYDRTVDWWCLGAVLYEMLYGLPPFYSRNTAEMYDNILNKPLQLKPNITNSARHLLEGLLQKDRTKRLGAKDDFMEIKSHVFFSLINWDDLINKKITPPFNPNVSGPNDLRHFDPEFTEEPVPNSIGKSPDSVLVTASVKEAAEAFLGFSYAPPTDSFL

`CCOC(=O)C1=c2s/c(=C/c3ccco3)c(=O)n2C(N)=C(C#N)C1c1ccco1` (centres undefined) and `Cc1n[nH]c2c1C(c1ccccc1I)C(C#N)=C(N)O2` (centres undefined) cannot be ordered by pKi: < 5.00 for the first, < 5.00 for the second.

Going from `NS(=O)(=O)c1cccc(Nc2ncc3ccn(-c4ccccc4)c3n2)c1` to `O=C(Nc1ccc(CO)cc1)c1cnn2c(-c3ccccc3)ccnc12`, the pKi falls from 5.90 to < 5.00. The first binds more tightly here.

Compared with `Cc1ccc(-c2cnc(N)c3c(-c4ccc(NC(=O)Nc5cccc(F)c5)cc4)csc23)cn1`, `Nc1ncc(-c2cnn(CCO)c2)c2scc(-c3ccc(NC(=O)Nc4cccc(F)c4)cc3)c12` is higher in pKi: < 5.00 for the first, 5.60 for the second.

`Cc1nccn2c(-c3ccnc(NCCC(C)(C)O)n3)c(-c3ccc(F)cc3F)nc12` and `Cc1nccn2c(-c3ccnc(NCC(C)(C)CO)n3)c(-c3ccc(F)cc3F)nc12` cannot be ordered by pKi: < 5.00 for the first, < 5.00 for the second.

`CC(C)(C)c1cnc(CSc2cnc(NC(=O)C3CCNCC3)s2)o1` and `CC(C)(C)OC(=O)n1cc(-c2cncn2C2CCCCC2)c2ccccc21` cannot be ordered by pKi: < 5.20 for the first, < 5.00 for the second.

`CN(C)C(=O)Nc1ccc2nc(-c3ccco3)c(-c3ccco3)nc2c1` and `Cc1cccc(NC(=O)Nc2ccc(-c3noc4ncnc(N)c34)cc2)c1` cannot be ordered by pKi: < 5.00 for the first, < 5.00 for the second.

`CCN(CC)CCCNc1cccc(-c2nc3c(C(N)=O)cccc3[nH]2)n1` and `O=C(Nc1cccc(C(F)(F)F)n1)Nc1ccnc2c(Cl)cccc12` cannot be ordered by pKi: < 5.00 for the first, < 5.00 for the second.

`Fc1ccc(-c2nc3sccn3c2-c2ccncc2)cc1` and `CS(=O)c1ccc(-c2nc(-c3ccc(F)cc3)c(-c3ccncc3)[nH]2)cc1` (centres undefined) cannot be ordered by pKi: < 5.00 for the first, < 5.10 for the second.

First: Cc1c[nH]c2nccc(Oc3c(F)cc(Nc4cc(Cl)nc(N)n4)cc3F)c12
Second: NC(=O)c1cc(-c2ccnc(N)n2)[nH]c1-c1ccc(Cl)cc1F
The pKi of the first is 1.20 log units higher: 6.60 for the first, 5.40 for the second.

First: Cc1cccc(NC(=O)Nc2ccc(-c3csc4c(C#CCCCCCCCCN)cnc(N)c34)cc2)c1
Second: Cc1cccc(NC(=O)Nc2ccc(-c3csc4c(C#CCNS(C)(=O)=O)cnc(N)c34)cc2)c1
The pKi of the first is 0.70 log units higher: 5.70 for the first, 5.00 for the second. The first binds more tightly here.

`O=c1[nH]cnc2c1sc1c(Cl)ccc(Cl)c12` and `O=c1[nH]c2cc(Cl)cc(Cl)c2c(-c2cc(Cl)ccc2O)c1O` cannot be ordered by pKi: < 5.00 for the first, < 5.00 for the second.

`COc1ccc2c(NC(=O)Nc3cccc(C(F)(F)F)n3)ccnc2c1` and `O=C(Nc1cccc(C(F)(F)F)n1)Nc1ccnc2cc(C(F)(F)F)ccc12` cannot be ordered by pKi: < 5.00 for the first, < 5.00 for the second.

Going from `N#Cc1ccc2[nH]c(O)c(-c3ccc(CN4CCOCC4)cn3)c2c1` to `O=C(c1cccc(-c2cnc3[nH]ccc3c2)c1)N1CCOCC1`, the pKi falls from 5.50 to < 5.00.

Compared with `CCCCNC1=NS(=O)N=C1Nc1ccc(F)cc1` (centres undefined), `CCCS(=O)(=O)Nc1ccc(-c2ccc3[nH]nc(NC(=O)CC)c3c2)cc1` is higher in pKi: < 5.00 for the first, 5.10 for the second.

Going from `N#Cc1ccc(NC(=O)Nc2ccnc3cc(C(F)(F)F)ccc23)nc1` to `O=C(Nc1cnccn1)Nc1ccnc2ccc(C(F)(F)F)cc12`, the pKi rises from < 5.00 to 5.40.

`CCOc1nc(C(=O)NCc2ccccc2S(N)(=O)=O)cc(N)c1C#N` and `CC(C)(C)c1cc(NC(=O)Nc2cccc3ccccc23)n(-c2cccc(C(=O)NCC#N)c2)n1` cannot be ordered by pKi: < 5.20 for the first, < 5.00 for the second.

Going from `O=C1Nc2ccc3ncsc3c2/C1=C/Nc1ccc(S(=O)(=O)Nc2ccccn2)cc1` to `Nc1nccc2scc(-c3ccc(NC(=O)Nc4cccc(Br)c4)cc3)c12`, the pKi falls from 7.80 to < 5.00. The first binds more tightly here.

Going from `COc1ccc(CNc2c(Nc3ccncc3)c(=O)c2=O)c(OC)c1` to `O=c1c(NCc2ccc(Cl)cc2)c(Nc2ccncc2)c1=O`, the pKi rises from < 5.00 to 5.70. The second binds more tightly here.

Compared with `Nc1ncnc2sc3c(c12)-c1ccc(NC(=O)Nc2ccccc2)cc1CC3`, `Cc1cccc(NC(=O)Nc2ccc(-c3coc4ncnc(N)c34)cc2)c1` is higher in pKi: < 5.00 for the first, 5.70 for the second.

`COCC(C)(C)CNc1nccc(-c2c(-c3ccc(F)cc3)nc3c(C)nccn23)n1` and `CCc1nccn2c(-c3ccnc(NCC(C)(C)O)n3)c(-c3ccc(F)cc3F)nc12` cannot be ordered by pKi: < 5.00 for the first, < 5.00 for the second.

`COc1cc(C=O)c(Cl)cc1NC(=O)Nc1cnc(C#N)cn1` and `COc1cc(C)c(Cl)cc1NC(=O)Nc1cnc(C#N)cn1` cannot be ordered by pKi: < 5.00 for the first, < 5.00 for the second.

First: O=C1CCCc2oc3cc(C(F)(F)F)ccc3c(=O)c21
Second: CC(=O)NCC(=O)N1C2CCC1c1cc(Nc3ncc(C(F)(F)F)c(NC4CCC4)n3)ccc12 (centres undefined)
The pKi of the first is lower: < 5.00 for the first, 6.40 for the second. The second binds more tightly here.

`COc1ccc(-c2ccc(NC(=O)Nc3cc(F)cc(F)c3)cc2)c2c(N)noc12` and `Cc1ccc(NC(=O)Nc2ccc(-c3coc4ncnc(N)c34)cc2)cc1` cannot be ordered by pKi: < 5.00 for the first, < 5.00 for the second.

First: O=C(Nc1cccc(N2CCOCC2)n1)Nc1ccnc2c(C(F)(F)F)cccc12
Second: O=C(Nc1cnccn1)Nc1ccnc2ccccc12
The pKi of the first is lower: < 5.00 for the first, 5.90 for the second.

`Nc1ncnc2c1c(-c1cccc(OCc3ccccc3)c1)cn2[C@H]1CC[C@H](N2CCCC2)CC1` and `Nc1nccn2c(C3CC(CN4CCCC4)C3)nc(-c3cccc(OCc4ccccc4)c3)c12` (centres undefined) cannot be ordered by pKi: < 5.00 for the first, < 5.00 for the second.

Compared with `CNC(=O)c1cnc(N)c2c(-c3ccc(NC(=O)Nc4cc(C)ccc4F)cc3)csc12`, `Nc1n[nH]c2cccc(-c3ccc(NC(=O)Nc4cc(C(=O)O)ccc4F)cc3)c12` is 1.10 log units higher in pKi: 5.30 for the first, 6.40 for the second. The second binds more tightly here.

`COc1cc(OC)c(Nc2ccc3nnc(-c4ccccc4)n3n2)cc1Cl` and `COc1ccc(OC)c(Nc2ccc3nnc(-c4ccccc4)n3n2)c1` cannot be ordered by pKi: < 5.00 for the first, < 5.00 for the second.

`Cc1csc(NC(=O)c2sc3nc(-c4ccncc4)ccc3c2N)n1` and `O=c1[nH]c2sccc2c2nc(-c3ccncc3)nn12` cannot be ordered by pKi: < 5.00 for the first, < 5.00 for the second.

Compared with `Clc1cc2nn[nH]c2cc1Cl`, `c1cc2cc(-c3ccc4cn[nH]c4c3)cnc2[nH]1` is higher in pKi: < 5.00 for the first, 5.70 for the second. The second binds more tightly here.

First: CCCCCCCCCCCCOc1ccc(NC(=N)N)cc1NC(=N)N
Second: C/C(=N/NC(=N)N)c1cc(NC(=O)NCCCCCCNC(=O)Nc2cc(/C(C)=N\NC(=N)N)cc(/C(C)=N/NC(=N)N)c2)cc(/C(C)=N/NC(=N)N)c1
The pKi of the first is lower: < 5.00 for the first, 5.50 for the second. The second binds more tightly here.

`Cc1cnc(-c2cnc(NCCNc3ccc(C#N)cn3)nc2-c2ccc(Cl)cc2Cl)[nH]1` and `CC(C)(O)CNc1nccc(-c2c(-c3ccc(F)cc3F)nc3c(CC4CC4)nccn23)n1` cannot be ordered by pKi: < 5.00 for the first, < 5.00 for the second.

First: NC(=O)c1cc2c(-c3ccc(F)cc3F)cncc2s1
Second: NC(=O)c1cc2c(-c3ccccc3)cncc2s1
The pKi of the first is 0.60 log units higher: 5.90 for the first, 5.30 for the second.

Going from `NCCOc1cccc(Nc2ccnc(N)n2)c1` to `OCCNc1cc2cc(-c3cccnc3)ccc2cn1`, the pKi rises from < 5.00 to 5.40. The second binds more tightly here.

`C/C(=N/NC(=N)N)c1cc(NC(=O)NCCCN(C)CCCNC(=O)Nc2cc(/C(C)=N\NC(=N)N)cc(/C(C)=N/NC(=N)N)c2)cc(/C(C)=N/NC(=N)N)c1` and `Cc1cc(C)cc(NC(=O)Nc2ccc(-c3cccc4c3CNC4=O)c(C)c2)c1` cannot be ordered by pKi: < 5.00 for the first, < 5.00 for the second.

Going from `NC(=O)C1CCCN(C(=O)c2cc(-c3ccc4[nH]ncc4c3)on2)C1` (centres undefined) to `Cc1ccc(Cn2cc(-c3ccc4[nH]ncc4c3)nn2)c(C)c1`, the pKi rises from < 5.00 to 5.50.

Going from `Fc1ccc(-c2nc3cnccn3c2-c2ccnc(NCC3CC3)n2)cc1` to `CCN1CCN(c2ccc(Nc3nccc(-c4c(-c5cccc(C(=O)Nc6ccccc6F)c5)nc5ccccn45)n3)cc2)CC1`, the pKi rises from < 5.00 to 5.20. The second binds more tightly here.

Compared with `Cc1ccc(C(=O)Nc2c(C#N)sc3ccc(Cl)c(Cl)c23)cc1`, `Cc1cccc(NC(=O)Nc2ccc(NC(=O)c3csc4ncnc(N)c34)cc2)c1` is higher in pKi: < 5.00 for the first, 5.20 for the second.

Going from `COc1cc(/C=C2/SC(=S)NC2=O)ccc1O` to `COc1cc2cnc3c(c2cc1OC)C(=O)NC3=O`, the pKi falls from 5.50 to < 5.00. The first binds more tightly here.

Going from `O=C(NNC(=S)Nc1ccc(F)cc1)C(O)(c1ccccc1)c1ccccc1` to `Cc1cccc(NC(=O)Nc2ccc(-c3cccc4[nH]ncc34)cc2)c1`, the pKi rises from < 5.00 to 5.70. The second binds more tightly here.

Compared with `COc1cccc([C@@H](C)NC(=O)c2ccc(-c3ccncc3)c(F)c2)c1`, `O=C(N[C@H](CO)Cc1ccccc1)c1ccc(-c2ccncc2)cc1F` is lower in pKi: 6.50 for the first, < 5.00 for the second. The first binds more tightly here.

First: Nc1ncnc2c1sc1ncnc(N)c12
Second: CNC(=O)/C=C/c1cnc(N)c2c(-c3ccc4sc(C)nc4c3)csc12
The pKi of the first is higher: 6.80 for the first, < 5.00 for the second.

Going from `c1ccc(CNc2nc3ccc(-c4ccncc4)cc3s2)cc1` to `c1ccc(CSc2nc(-c3ccncc3)n[nH]2)cc1`, the pKi falls from 5.60 to 5.10 (0.50 log units). The first binds more tightly here.

Compared with `COc1ccc(-c2cnc3c(Br)cnn3c2)cc1`, `COc1ccc(OC)c(NC(=O)c2cnn3c(-c4ccccc4)ccnc23)c1` is lower in pKi: 5.50 for the first, < 5.00 for the second.

`Cc1cccc(C2(c3cccc(C)c3)CC2C(=O)Nc2ccncc2)c1` (centres undefined) and `N[C@@H](Cc1cccc2ccccc12)C(=O)Nc1cncc(/C=C/c2ccncc2)c1` cannot be ordered by pKi: < 5.00 for the first, < 5.00 for the second.

`CN1CC[C@@H](c2c(O)cc(O)c3c(=O)cc(-c4ccccc4Cl)oc23)[C@@H](O)C1` and `CC1CSc2c(C(=O)O)c(=O)c3cc(F)c(N4CC[C@@H](N)C4)cc3n21` (some centres undefined) cannot be ordered by pKi: < 5.00 for the first, < 5.00 for the second.

Going from `COc1cccc([C@@H](C)NC(=O)N2CC=C(c3c[nH]c4ncccc34)CC2)c1` to `O[C@H]1CC[C@H](Nc2nc(Cl)cc(-c3c[nH]c4ncccc34)n2)CC1`, the pKi falls from 7.70 to 6.80 (0.90 log units).

`O=C1Nc2ccccc2Nc2ccccc21` and `OCCCNc1ncnc2[nH]cc(-c3ccccc3)c12` cannot be ordered by pKi: < 5.00 for the first, < 5.10 for the second.

Going from `O=C(Nc1nc2ccccc2n1CCCO)c1cccc([N+](=O)[O-])c1` to `NCCCOc1cc2c(c(-c3ccc(Nc4nc5ccccc5o4)cc3)c1)CNC2=O`, the pKi rises from < 5.00 to 5.10. The second binds more tightly here.

`CCN1C(=O)N(C)c2cnc(Nc3ccc(C(=O)NC4CCN(C)CC4)cc3OC)nc2N1C1CCCC1` and `COc1cc(-c2nn([C@H]3CC[C@H](N4CCN(C(C)=O)CC4)CC3)c3ncnc(N)c23)ccc1NC(=O)c1cc2ccccc2n1C` cannot be ordered by pKi: < 5.00 for the first, < 5.00 for the second.

`Cc1n[nH]c2c1C(c1ccccc1Cl)C(C#N)=C(N)O2` (centres undefined) and `Cc1cc(-c2ccccc2)n(-c2cc(N/N=C/c3ccco3)ncn2)n1` cannot be ordered by pKi: < 5.00 for the first, < 5.00 for the second.

`COc1cc(-c2ccc3c(c2)Nc2ccc(CCOc4ccc(N5CCOCC5)cc4)cc2NC3=O)ccc1OCC(O)CO` (centres undefined) and `Cc1cc2cc(-c3csc4c(-c5cccc(S(C)(=O)=O)c5)cnc(N)c34)ccc2[nH]1` cannot be ordered by pKi: < 5.00 for the first, < 5.00 for the second.

Going from `O=C(NCC1CCCCC1)c1cc2c(-c3ccccc3)n[nH]c2s1` to `NCC1CCC(CNc2nc(NCc3ccccc3Cl)ncc2[N+](=O)[O-])CC1` (centres undefined), the pKi falls from 5.50 to 5.30 (0.20 log units).

`C[C@@H](N)C1CCC(C(=O)Nc2ccncc2)CC1` (some centres undefined) and `CC(=O)N1CCN(C2CCC(n3nc(-c4ccc(NC(=O)c5cc6ccccc6n5C)cc4)c4c(N)ncnc43)CC2)CC1` (centres undefined) cannot be ordered by pKi: < 5.00 for the first, < 5.00 for the second.

`Nc1ncc(/C=C/C(=O)NCCCn2ccnc2)c2scc(-c3ccc(Br)cc3)c12` and `O=C(Nc1ccc(-c2cccc3sncc23)cc1)Nc1ccc(F)c(C(F)(F)F)c1` cannot be ordered by pKi: < 5.00 for the first, < 5.00 for the second.

`Oc1cc(O)cc(/C=C/c2ccc(O)c(O)c2)c1` gave a pKi of 6.50.
